The values below are quoted from earlier work in patent publication US20130108701A1, “Solid Dosage Forms of Antipsychotics” (priority 2010, published 2013).

The structures appear in SMILES notation. Counter-ions that a name gives are not always drawn.

Test in data set [1]: not given
The source holds these as a separate data set.

`O=C1Cc2cc(CCN3CCN(c4nsc5ccccc45)CC3)c(Cl)cc2N1` [Ziprasidone hydrochloride, 5-[2-[4-(1,2-benzisothiazol-3-yl)-1-piperazinyl]ethyl]-6-chloro-1,3-dihydro-2H-indol-2-one]: the aqueous solubility entry is given as “relatively poor”. For the same compound, the permeability result in data set [1] is given as “high”.
